{"source": "patent US9540418B2", "about": "“Polypeptide specifically binding to rare earth nanoparticles and use thereof” (University of Science and Technology of China, priority 2012, dated 2017)", "key": {"[1]": {"experiment": "Sedimentation / suspension time-dynamics curve of UCN (UV 500 nm)", "format": "physicochemical", "settings": "standing for 120 min; UCN with or without RE-1 coating", "procedure": "3 mg of UCN was mixed with 1.5 mg of RE-1 or its analogues RE-2, RE-3, or RE-5 as well as PEG, and the binding between them was performed according to a binding method. The excess and unbound RE-1 was washed off. The resultant precipitate was resuspended in 3 mL water, sonicated for 1 min, and then placed into a UV detection cell (X72053, Alpha Laboratories Ltd, UK). Observation was made using a UV spectrophotometer (DU-640, Beckman, USA) at an absorption wavelength of 500 nm for 120 min to obtain a time-dynamics curve."}, "[2]": {"system": "HeLa-LC3 cells", "experiment": "RE-1 analogues blocking nanophosphor-induced autophagy (LC3 aggregates and vacuoles)", "format": "cell-based", "procedure": "UCN and UCP coated with RE-1 analogues RE-2, RE-3, or RE-5 were prepared as follows: 50 μg or 10 μg RE-1 analogues RE-2, RE-3, or RE-5 was mixed with 100 μg UCN or UCP, respectively, incubated at 37° C. for 2 hr, centrifuged at 12000 rpm, and then washed with water 3 times to remove the excess and unbound peptides. The resultant precipitate was resuspended in 100 μL water.\nHeLa-LC3 cells were inoculated into a 96-well cell culture plate at a density of about 1-2×10^4 cells/well, and cultured overnight for further use. At first, the medium was replaced with fresh DMEM medium, and then 100 μg/mL UCN, UCN+RE-1, UCN+RE-2, UCN+RE-3, or UCN+RE-5 was added. An equal volume of PBS was used as blank. A mixture of 100 μg/mL UCN and 10 mg/mL PEG was used as negative control. A mixture of 100 mM trehalose and 50 μg RE-1 was used as positive control. After culturing for 24 hr, a fluorescence microscope was used to observe, image, and count.\nHeLa-LC3 cells were inoculated into a 96-well cell culture plate at a density of about 1-2×10^4 cells/well, and cultured overnight for further use. At first, the medium was replaced with fresh DMEM medium, and then 100 μg/mL UCP, UCP+RE-1, UCP+RE-2, UCP+RE-3, or UCP+RE-5 was added. An equal volume of PBS was used as blank. After culturing for 24 hr, a fluorescence microscope was used to observe, image, and count.\nThe ability to induce cell autophagy was estimated by determining the numbers of LC3 aggregates and vacuoles."}}}
{"sequence": "ACTARSPWICG [RE-1, RE-0 with terminal amino acids A and G added]", "values": [{"measurement": "suspension / sedimentation of UCN in water", "setting": "[1]", "result": "still in suspension"}, {"measurement": "rank of ability after coating UCN to inhibit cell autophagy induced by UCN", "setting": "[2]; 100 μg/mL, 24 hr", "result": "RE-1>RE-3>RE-5"}, {"measurement": "inhibition of cell autophagy induced by Tre (trehalose)", "setting": "[2]; mixture of 100 mM trehalose and 50 μg RE-1", "result": "had no inhibition"}]}
